In PubChem BioAssay (NCI):
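Protocol summary: plate cells (96-well), add compound at 5 concentrations, incubate 48 h, interpolate endpoints linearly. GI50: concentration for 50% inhibition of growth. TGI denotes the concentration required for complete inhibition of growth.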

Tests used:
Experiment in all cases: inhibition of tumour cell growth, NCI panel, 48 h
EKVX NSCLC = system: EKVX NSCLC
HS 578T breast = system: HS 578T breast
M14 melanoma = system: M14 melanoma
OVCAR-5 ovarian = system: OVCAR-5 ovarian
PC-3 prostate = system: PC-3 prostate
RXF 393 renal = system: RXF 393 renal
SK-OV-3 ovarian = system: SK-OV-3 ovarian
SN12C renal = system: SN12C renal
SNB-19 CNS = system: SNB-19 CNS
UO-31 renal = system: UO-31 renal

Row | Structure (SMILES) | GI50 (EKVX NSCLC) | TGI (EKVX NSCLC) | GI50 (HS 578T breast) | TGI (HS 578T breast) | GI50 (M14 melanoma) | TGI (M14 melanoma) | GI50 (OVCAR-5 ovarian) | TGI (OVCAR-5 ovarian) | GI50 (PC-3 prostate) | TGI (PC-3 prostate) | GI50 (RXF 393 renal) | TGI (RXF 393 renal) | GI50 (SK-OV-3 ovarian) | TGI (SK-OV-3 ovarian) | GI50 (SN12C renal) | TGI (SN12C renal) | GI50 (SNB-19 CNS) | TGI (SNB-19 CNS) | GI50 (UO-31 renal) | TGI (UO-31 renal)
1 | Cc1c(C)[n+](=O)c(C)c(C)n1[O-] | > 100 µM | > 100 µM | > 100 µM | > 100 µM | > 100 µM | > 100 µM | > 100 µM | > 100 µM | > 100 µM | > 100 µM | > 100 µM | > 100 µM | > 100 µM | > 100 µM | > 100 µM | > 100 µM | > 100 µM | > 100 µM | > 100 µM | > 100 µM
2 | CO[C@@H]1/C=C(C)/C=C/[C@@H](C)/C=C(\C)C(=O)OC(/C(C)=C/C=C(\C)CNC(=O)[C@H](CO)NC=O)[C@@H](C)/C=C/C=C/[C@H](OC)CC/C=C(C)/C=C/C1 (stereo not given in full) | 5.56 µM | 15.6 µM | < 0.005 µM | 24.9 µM | < 0.005 µM | < 0.005 µM | 0.178 µM | 12.5 µM | < 0.005 µM | 6.91 µM | 0.285 µM | 0.808 µM | 0.332 µM | 9.48 µM | 0.182 µM | 12.2 µM | 0.303 µM | 9.12 µM | < 0.005 µM | 0.425 µM
3 | NC1=NC(c2ccc(Cl)cc2)C2=C(N1)/C(=C/c1ccc(Cl)cc1)CCC2 (stereo not given) | 13.3 µM | 78.4 µM | 7.97 µM | > 29.9 µM | 2.77 µM | 11.6 µM | 25.2 µM | 63.3 µM | 7.82 µM | 56.3 µM | 2.05 µM | 4.45 µM | 23.5 µM | > 100 µM | 17.3 µM | 50.4 µM | 19.8 µM | 99.3 µM | 9.76 µM | 27.9 µM
